Data set [1] has as its target T1, human 5-HT1A receptor subtype (Homo sapiens, UniProt P08908).
T1 construct: expressed in transfected cells
T1 sequence (P08908 1-422): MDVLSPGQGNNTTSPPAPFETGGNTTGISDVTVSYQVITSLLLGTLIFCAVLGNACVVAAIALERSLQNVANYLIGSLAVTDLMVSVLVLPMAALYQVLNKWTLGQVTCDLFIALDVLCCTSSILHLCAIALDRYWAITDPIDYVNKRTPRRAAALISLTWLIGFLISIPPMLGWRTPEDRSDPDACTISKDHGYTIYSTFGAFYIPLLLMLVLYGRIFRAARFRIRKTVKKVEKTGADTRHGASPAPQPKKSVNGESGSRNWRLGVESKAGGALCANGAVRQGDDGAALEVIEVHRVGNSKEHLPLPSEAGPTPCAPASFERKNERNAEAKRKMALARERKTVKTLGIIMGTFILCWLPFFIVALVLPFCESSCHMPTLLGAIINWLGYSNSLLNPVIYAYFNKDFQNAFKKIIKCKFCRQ
Briefly: 5-HT1A receptor binding, [3H]8-OH-DPAT, CHO cell membranes. The settings on record: for 5-HT1A, value given as %: concentration not given; for Ki: [3H]8-OH-DPAT 1.5 nM. As to the method:
The PCR cloning of the human 5-HT1A receptor subtype from a human genomic library has been described previously Chanda et al., Mol. Pharmacol., 43:516 (1993). A stable Chinese hamster ovary cell line expressing the human 5-HT1A receptor subtype (5-HT1A.CH2O cells) was employed throughout this study. Cells were maintained in DMEM supplemented with 10% fetal calf serum, non-essential amino acids and penicillin/streptomycin.
Cells were grown to 95-100% confluency as a monolayer before membranes were harvested for binding studies. Cells were gently scraped from the culture plates, transferred to centrifuge tubes, and washed twice by centrifugation (2000 rpm for 10 min., 4° C.) in buffer (50 mM Tris; pH 7.5). The resulting pellets were aliquoted and placed at −80° C. On the day of assay, the cells were thawed on ice, and resuspended in buffer. Studies were conducted using [^3H]8-OH-DPAT as the radioligand. The binding assay was performed in 96 well microtiter plates in a final total volume of 250 μL of buffer. Competition experiments were performed by using 7 concentrations of unlabelled drug and a final ligand concentration of 1.5 nM. Non-specific binding was determined in the presence of 10 μM 5HT. Saturation analysis was conducted by using [^3H]8-OH-DPAT at concentaritions ranging from 0.3-30 nm Following a 30 minute incubation at room temperature, the reaction was terminated by the addition of ice cold buffer and rapid filtration using a M-96 Brandel Cell Harvester (Gaithersburg, Md.) through a GF/B filter presoaked for 30 minutes in 0.5% polyethylenenimine.

Molecules are shown by their SMILES.

As for `Brc1ccc2[nH]cc([C@H]3CC[C@@H](N4CCN(c5cccc6[nH]ccc56)CC4)CC3)c2c1` [Example 5a, 5-Bromo-3-[cis-4-[4-(1H-indol-4-yl)-1-piperazinyl]cyclohexyl]-1H-indole], the “5-HT1A, value given as %” value in data set [1] worked out at 0%.

Take `Brc1ccc2[nH]cc([C@H]3CC[C@H](N4CCN(c5cccc6[nH]ccc56)CC4)CC3)c2c1` [Example 5b, 5-Bromo-3-[trans-4-[4-(1H-indol-4-yl)-1-piperazinyl]cyclohexyl]-1H-indole]: the “5-HT1A, value given as %” value in data set [1] amounted to 78.7%.

`Cn1ccc2c(N3CCN([C@H]4CC[C@@H](c5cn(C)c6cc(F)ccc65)CC4)CC3)cccc21` [Example 11, 6-Fluoro-1-methyl-3-{cis-4-[4-(1-methyl-1H-indol-4-yl)-1-piperazinyl]cyclohexyl}-1H-indole]: the “5-HT1A, value given as %” value in data set [1] is listed as 0%.

With `CCn1cc([C@H]2CC[C@@H](N3CCN(c4cccc5[nH]ccc45)CC3)CC2)c2cc(C#N)ccc21` [Example 13a, 1-Ethyl-3-{(1,4-cis)-4-[4-(1H-indol-4-yl)-piperazin-1-yl]-cyclohexyl}-1H-indole-5-carbonitrile], the affinity in data set [1], expressed as Ki, was 563 nM.

Regarding `CCn1cc([C@H]2CC[C@H](N3CCN(c4cccc5[nH]ccc45)CC3)CC2)c2cc(C#N)ccc21` [Example 13b, 1-Ethyl-3-{(1,4-trans)-4-[4-(1H-indol-4-yl)-piperazin-1-yl]-cyclohexyl}-1H-indole-5-carbonitrile], the affinity in data set [1] corresponds to a Ki of 827 nM.

Regarding `CCCn1cc([C@H]2CC[C@@H](N3CCN(c4cccc5[nH]ccc45)CC3)CC2)c2cc(C#N)ccc21` [Example 14a, 3-{(1,4-cis)-4-[4-(1H-Indol-4-yl)-piperazin-1-yl]-cyclohexyl}-1-propyl-1H-indole-5-carbonitrile], in data set [1], affinity was put at a Ki of 820 nM.

Take `CCCn1cc([C@H]2CC[C@H](N3CCN(c4cccc5[nH]ccc45)CC3)CC2)c2cc(C#N)ccc21` [Example 14b, 3-{(1,4-trans)-4-[4-(1H-indol-4-yl)-piperazin-1-yl]-cyclohexyl}-1-propyl-1H-indole-5-carbonitrile]: the “5-HT1A, value given as %” value in data set [1] is reported as 0%.

Turning to `COc1ccc2[nH]cc([C@H]3CC[C@@H](N4CCN(c5ccccc5OC)CC4)CC3)c2c1` [Example 20a, 5-Methoxy-3-{(1,4-cis)-4-[4-(2-methoxy-phenyl)-piperazin-1-yl]-cyclohexyl}-1H-indole], the inhibition constant (Ki) (usually the dissociation constant of the complex between target and ligand, obtained from inhibition or displacement) in data set [1] is 631 nM.

Compound `COc1ccccc1N1CCN([C@H]2CC[C@@H](c3c[nH]c4ncccc43)CC2)CC1` [Example 21, 3-{(1,4-cis)-4-[4-(2-Methoxy-phenyl)-piperazin-1-yl]-cyclohexyl}-1H-pyrrolo[2,3-b]pyridine] had a Ki in data set [1] of 110 nM.

Compound `Fc1cccc2[nH]cc([C@H]3CC[C@@H](N4CCN(c5cccc6c5OCCO6)CC4)CC3)c12` [Example 23a, 3-{(1,4-cis)-4-[4-(2,3-Dihydro-benzo[1,4]dioxin-5-yl)-piperazin-1-yl]-cyclohexyl}-4-fluoro-1H-indole] returned a Ki in data set [1] of 103 nM.

`COc1cc(N2CCN([C@H]3CC[C@@H](c4cn(C)c5ccc(C#N)cc54)CC3)CC2)c2ncc(C)cc2c1` [Example 51b, (cis)-3-{4-[4-(6-Methoxy-3-methylquinolin-8-yl)piperazin-1-yl]cyclohexyl}-1-methyl-1H-indole-5-carbonitrile]: the melting point – broadly, the temperature of the solid-liquid transition – was 190 to 191.5 °C.

`COc1cc(N2CCN([C@H]3CC[C@@H](c4cn(C)c5ccc(C#N)cc54)CC3)CC2)c2nccc(C)c2c1` [Example 51c, (cis)-3-{4-[4-(6-Methoxy-4-methylquinolin-8-yl)piperazin-1-yl]cyclohexyl}-1-methyl-1H-indole-5-carbonitrile]: the melting point lay within 210 to 212 °C.

On to `COc1cc(N2CCN([C@H]3CC[C@H](c4cn(C)c5ccc(C#N)cc54)CC3)CC2)c2nccc(C)c2c1` [Example 51d, (trans)-3-{4-[4-(6-Methoxy-4-methylquinolin-8-yl)piperazin-1-yl]cyclohexyl}-1-methyl-1H-indole-5-carbonitrile], for which the melting point lay within 230 to 232 °C.

Compound `COc1cc(N2CCN([C@H]3CC[C@@H](c4cn(C)c5ccc(C#N)cc54)CC3)CC2)c2ncccc2c1C` [Example 52a, (cis)-3-{4-[4-(6-Methoxy-5-methylquinolin-8-yl)piperazin-1-yl]cyclohexyl}-1-methyl-1H-indole-5-carbonitrile] gave a melting point of 227 to 228 °C.

Compound `COc1cc(N2CCN([C@H]3CC[C@H](c4cn(C)c5ccc(C#N)cc54)CC3)CC2)c2ncccc2c1C` [Example 52b, (trans)-3-{4-[4-(6-Methoxy-5-methylquinolin-8-yl)piperazin-1-yl]cyclohexyl}-1-methyl-1H-indole-5-carbonitrile] gave a melting point of 212 to 213 °C.

Turning to `COc1cc(N2CCN([C@H]3CC[C@@H](c4cn(C)c5ccc(C#N)cc54)CC3)CC2)c2ncccc2c1Cl` [Example 52e, (cis)-3-{4-[4-(5-Chloro-6-methoxyquinolin-8-yl)piperazin-1-yl]cyclohexyl}-1-methyl-1H-indole-5-carbonitrile], the melting point is 231 °C.

As to `COc1cc(N2CCN([C@H]3CC[C@H](c4cn(C)c5ccc(C#N)cc54)CC3)CC2)c2ncccc2c1Cl` [Example 52f, (trans)-3-{4-[4-(5-Chloro-6-methoxyquinolin-8-yl)piperazin-1-yl]cyclohexyl}-1-methyl-1H-indole-5-carbonitrile], the melting point was 215 to 216 °C.

`Cn1cc([C@H]2CC[C@@H](N3CCN(c4cc(Br)cc5cccnc45)CC3)CC2)c2cc(F)ccc21` [Example 58a, (cis)-6-Bromo-8-{4-[4-(5-fluoro-1-methyl-1H-indol-3-yl)cyclohexyl]piperazin-1-yl}quinoline] came in with a melting point of 215 to 217 °C.

Compound `COc1cc(N2CCN([C@H]3CC[C@H](c4cn(C)c5ccc(C#N)cc54)CC3)CC2)c2nccnc2c1` [Example 65b, (trans)-3-{4-[4-(7-Methoxyquinoxalin-5-yl)piperazin-1-yl]cyclohexyl}-1-methyl-1H-indole-5-carbonitrile] showed a melting point of 230 to 233 °C.

Take `Cn1cc([C@H]2CC[C@H](N3CCN(c4cc(C=O)cc5cccnc45)CC3)CC2)c2cc(C#N)ccc21` [Example 72, 8-[4-[(trans)-4-(5-Cyano-1-methyl-1H-indole-3-yl)-cyclohexyl]-piperazin-1-yl]-6-quinolinecarbaldehyde]: the melting point is 201 to 203 °C.

Take `Cn1cc([C@H]2CC[C@H](N3CCN(c4cc(C(=O)O)cc5cccnc45)CC3)CC2)c2cc(C#N)ccc21` [Example 74, 8-[4-[(trans)-4-(5-Cyano-1-methyl-1H-indole-3-yl)cyclohexyl]-1-piperazinyl]-6-quinolinecarboxylic Acid]: the melting point was 275 °C.

`CN(C)C(=O)c1cc(N2CCN([C@H]3CC[C@H](c4cn(C)c5ccc(C#N)cc54)CC3)CC2)c2ncccc2c1` [Example 77b, 8-[4-[(trans)-4-(5-Cyano-1-methyl-1H-indol-3-yl)cyclohexyl]-1-piperazinyl]-N,N-dimethyl-6-quinolincarboxamide] registered a melting point of 160 to 163 °C.

Compound `COc1cc(N2CCN([C@H]3CC[C@@H](c4cn(C)c5ncccc54)CC3)CC2)c2ncccc2c1` [Example 79, 6-Methoxy-8-{cis-4-[4-(1-methyl-1H-pyrrolo[2,3-b]pyridin-3-yl)cyclohexyl]-1-piperazinyl}quinoline] returned a melting point of 105 to 110 °C.

The compound `COc1cc(N2CCN([C@H]3CC[C@@H](c4c[nH]c5cc(F)ccc54)CC3)CC2)c2ncccc2c1` [Example 80, 8-{cis-4-[4-(6-Fluoro-1H-indol-3-yl)cyclohexyl]-1-piperazinyl}-6-methoxyquinoline] yielded a melting point of 239 to 243 °C.

The compound `COc1cc(N2CCN([C@H]3CC[C@@H](c4cn(C)c5cc(F)ccc54)CC3)CC2)c2ncccc2c1` [Example 81, 8-{cis-4-[4-(6-Fluoro-1-methyl-1H-indol-3-yl)cyclohexyl]-1-piperazinyl}-6-methoxyquinoline] registered a melting point of 219 to 223 °C.

With `COc1cc(N2CCN([C@H]3CC[C@@H](c4c[nH]c5ccc(C(F)(F)F)cc54)CC3)CC2)c2ncccc2c1` [Example 82, 6-Methoxy-8-(4-{(cis)-4-[5-(trifluoromethyl)-1H-indol-3-yl]cyclohexyl}-1-piperazinyl)quinoline], the melting point was in the range of 143 to 147 °C.

`COc1cc(N2CCN(C3CCC(c4c[nH]c5cc(C#N)ccc45)CC3)CC2)c2ncccc2c1` (stereo not drawn) [Example 85, 3-{4-[4-(6-Methoxy-8-quinolinyl)-1-piperazinyl]cyclohexyl}-1H-indole-6-carbonitrile]: the melting point was 242 to 244 °C.
